From patent US20260184707A1, “PHARMACEUTICAL COMPOUNDS FOR THE TREATMENT OF COMPLEMENT MEDIATED DISORDERS” (ALEXION PHARMACEUTICALS, INC., priority 2022, published 2026) come the findings set out here.

Each structure is given as a SMILES string. pIC50: −log10 of the molar value. Where only a bound is given, the exact number is not on record here.

The target in this test is T1, Human complement C1s enzyme (Homo sapiens, UniProt P09871).
T1 construct: purified from human serum, Complement Technology, Inc; purchased Complement Technology, Inc; host or cells: human serum (plasma-derived native protein)
T1 sequence (P09871 438-688 limits assumed): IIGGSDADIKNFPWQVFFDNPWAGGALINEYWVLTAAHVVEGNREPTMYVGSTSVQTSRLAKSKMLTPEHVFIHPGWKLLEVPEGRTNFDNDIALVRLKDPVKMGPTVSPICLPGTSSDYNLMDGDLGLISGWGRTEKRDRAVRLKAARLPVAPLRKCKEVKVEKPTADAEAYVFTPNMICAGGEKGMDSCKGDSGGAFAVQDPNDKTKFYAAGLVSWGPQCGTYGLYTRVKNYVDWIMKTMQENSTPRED
T1 sequence (P09871 16-437 partner limits assumed): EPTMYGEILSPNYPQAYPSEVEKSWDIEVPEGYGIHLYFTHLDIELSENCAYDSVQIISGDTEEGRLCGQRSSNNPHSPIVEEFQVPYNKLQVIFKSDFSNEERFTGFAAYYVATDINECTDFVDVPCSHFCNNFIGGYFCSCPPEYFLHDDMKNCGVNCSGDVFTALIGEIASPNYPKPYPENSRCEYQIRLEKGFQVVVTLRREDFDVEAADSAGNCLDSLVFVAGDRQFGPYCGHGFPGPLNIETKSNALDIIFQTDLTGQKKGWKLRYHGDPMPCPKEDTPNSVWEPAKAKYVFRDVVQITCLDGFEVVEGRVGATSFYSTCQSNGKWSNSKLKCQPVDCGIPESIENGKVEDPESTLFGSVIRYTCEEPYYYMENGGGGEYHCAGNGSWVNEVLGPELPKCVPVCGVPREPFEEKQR
Briefly: Human C1s enzyme assay. The note with it: human complement C1s enzyme 1.16 nM, substrate Z-L-Lys-SBzl, A405; read-out: IC50 (Stars). In kind it is biochemical. In outline: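 Serum-purified human C1s (1.16 nM final) preincubated 5 min at room temperature with compound in 50 mM Tris, 1 M NaCl, pH 7.5. Z-L-Lys-SBzl and DTNB added at 100 μM each; A405 recorded every 30 s. IC50 from nonlinear regression of reaction rates versus compound concentration.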

Usually pIC50 stands for −log10 of the IC50, conventionally taken in molar units. For `C[C@H](Nc1cnc(-c2ccco2)n(CC(=O)NCc2cc3cnccc3[nH]2)c1=O)c1ccc2oc3ccccc3c2c1` [Compound 273, (S)-N-((1H-pyrrolo[3,2-c]pyr-idin-2-yl)methyl)-2-(5-((1-(dibenzo[b,d]furan-2-yl)ethyl)-amino)-2-(furan-2-yl)-6-oxo-pyrimidin-1(6H)-yl)acetamide], the pIC50 was greater than 7.00.

`C[C@@H](Nc1cnc(N2CCC(O)CC2)n(CC(=O)NCc2cc3cnccc3[nH]2)c1=O)c1ccc2oc3ccccc3c2c1` [Compound 380, (R)-N-((1H-pyrrolo[3,2-c]pyridin-2-yl)methyl)-2-(5-((1-(dibenzo[b,d]furan-2-yl)ethyl)-amino)-2-(4-hydroxypiperidin-1-yl)-6-oxopyrimidin-1(6H)-yl)acetamide]: the pIC50 was 6.00 to 7.00.

For the molecule `O=C(Cn1c(-c2ccccc2)ncc(-c2ccccc2)c1=O)NCc1cc2cnccc2[nH]1` [Compound 25, N-((1H-pyrrolo[3,2-c]pyridin-2-yl)methyl)-2-(6-oxo-2,5-diphenylpyrimidin-1(6H)-yl)acetamide], the pIC50 is less than 6.00.

Regarding `O=C(Cn1c(-c2ccccc2)ncc(NC(=O)c2cnc(-c3ccccc3)o2)c1=O)NCc1cc2cnccc2[nH]1` [Compound 107, N-(1-(2-(((1H-pyrrolo[3,2-c]pyridin-2-yl)methyl)amino)-2-oxoethyl)-6-oxo-2-phenyl-1,6-dihydropyrimidin-5-yl)-2-phenyloxazole-5-carboxamide], the pIC50 is greater than 7.00.

With `O=C(Cn1c(-c2ccncc2)ncc(NCc2ccc3oc4ccccc4c3c2)c1=O)NCc1cc2cnccc2[nH]1` [Compound 289, N-((1H-pyrrolo[3,2-c]pyridin-2-yl)methyl)-2-(5-((dibenzo [b,d]furan-2-ylmethyl)amino)-6-oxo-2-(pyridin-4-yl)pyrimi-din-1(6H)-yl)acetamide], the pIC50 was greater than 7.00.

On to `Cn1cc(-c2ncc(NCc3cc4ccccc4o3)c(=O)n2CC(=O)NCc2cc3cnccc3[nH]2)cn1` [Compound 483, N-((1H-pyrrolo[3,2-c]pyridin-2-yl)methyl)-2-(5-((benzo-furan-2-ylmethyl)amino)-2-(1-methyl-1H-pyrazol-4-yl)-6-oxopyrimidin-1(6H)-yl)-acetamide], for which the pIC50 was greater than 7.00.

Consider `C[C@@H]1CN(c2ncc(N[C@H](C)c3ccc4oc5ccccc5c4c3)c(=O)n2CC(=O)NCc2cc3cnccc3[nH]2)CCO1` [Compound 304, N-((1H-pyrrolo[3,2-c]pyridin-2-yl)methyl)-2-(5-(((R)-1-(dibenzo[b,d]furan-2-yl)ethyl)-amino)-2-((R)-2-methylmorph-olino)-6-oxopyrimidin-1(6H)-yl)acetamide], for which the pIC50 is 6.00 to 7.00.

Turning to `O=C(Cn1c(N2CCOCC2)ncc(NCCCc2ccccc2)c1=O)NCc1cc2cnccc2[nH]1` [Compound 412, N-((1H-pyrrolo[3,2-c]pyridine-2-yl)methyl)-2-(2-morpholino-6-oxo-5-((3-phenylpropyl)amino)pyrimidin-1(6H)-yl)acetamide], the pIC50 was greater than 7.00.

For `C[C@@H](Nc1cnc(C2=CCOCC2)n(CC(=O)NCc2cc3cnccc3[nH]2)c1=O)c1ccc2oc3ccccc3c2c1` [Compound 291, (R)-N-((1H-pyrrolo[3,2-c]pyr-idin-2-yl)methyl)-2-(5-((1-(dibenzo[b,d]furan-2-yl)ethyl)-amino)-2-(3,6-dihydro-2H-pyran-4-yl)-6-oxopyrimidin-1(6H)-yl)acetamide], the negative-log IC50 (pIC50) is greater than 7.00.

With `O=C(Cn1c(N2CCCCC2)cnc(NCc2cc(-c3ccccc3F)on2)c1=O)NCc1cc2cnccc2[nH]1` [Compound 479, N-((1H-pyrrolo[3,2-c]pyridin-2-yl)methyl)-2-(3-(((5-(2-fluorophenyl)isoxazol-3-yl)-methyl)amino)-2-oxo-6-(piper-idin-1-yl)pyrazin-1(2H)-yl)-acetamide], the pIC50 was greater than 7.00.

As to `O=C(Cn1c(-c2ccccc2)ncc(NC(=O)Cc2ccc(Oc3ccccc3)cc2)c1=O)NCc1cc2cnccc2[nH]1` [Compound 38, N-((1H-pyrrolo[3,2-c]pyridin-2-yl)methyl)-2-(6-oxo-5-(2-(4-phenoxyphenyl)acetamido)-2-phenylpyrimidin-1(6H)-yl)-acetamide], the pIC50 was greater than 7.00.

In the case of `C[C@@H](Nc1cnc(N2CC3(C2)CC(F)(F)C3)n(CC(=O)NCc2cc3cnccc3[nH]2)c1=O)c1ccc2oc3ccccc3c2c1` [Compound 374, (R)-N-((1H-pyrrolo[3,2-c]pyridin-2-yl)methyl)-2-(5-((1-(dibenzo[b,d]furan-2-yl)ethyl)-amino)-2-(6,6-difluoro-2-aza-spiro[3.3]heptan-2-yl)-6-oxo-pyrimidin-1(6H)-yl)acetamide], the pIC50 is less than 6.00.

For `C[C@@H](Nc1cnc(N2CCCC(C(F)(F)F)C2)n(CC(=O)NCc2cc3cnccc3[nH]2)c1=O)c1ccc2oc3ccccc3c2c1` (stereo partly drawn) [Compound 402, N-((1H-pyrrolo[3,2-c]pyridin-2-yl)methyl)-2-(5-(((R)-1-(dibenzo[b,d]furan-2-yl)ethyl)-amino)-6-oxo-2-(3-(trifluoro-methyl)piperidin-1-yl)pyrimi-din-1(6H)-yl)acetamide], the pIC50 was 6.00 to 7.00.

Regarding `CS(=O)(=O)c1ccc(CCCNc2cnc(-c3ccccc3)n(CC(=O)NCc3cc4cnccc4[nH]3)c2=O)cc1` [Compound 42, N-((1H-pyrrolo[3,2-c]pyridin-2-yl)methyl)-2-(5-((3-(4-(methylsulfonyl)phenyl)propyl)amino)-6-oxo-2-phenylpyrimidin-1(6H)-yl)acetamide], the pIC50 is greater than 7.00.

As to `O=C(Cn1c(-c2ccccc2)ncc(NC(=O)c2ccc(Oc3nccs3)cc2)c1=O)NCc1cc2cnccc2[nH]1` [Compound 94, N-(1-(2-(((1H-pyrrolo[3,2-c]pyridin-2-yl)methyl)amino)-2-oxoethyl)-6-oxo-2-phenyl-1,6-dihydropyrimidin-5-yl)-4-(thiazol-2-yloxy)benzamide], the pIC50 is greater than 7.00.

On to `O=C(Cn1c(-c2ccccc2)ncc(NCCOc2ccccc2)c1=O)NCc1cc2cnccc2[nH]1` [Compound 6, N-((1H-pyrrolo[3,2-c]pyridin-2-yl)methyl)-2-(6-oxo-5-((2-phenoxyethyl)amino)-2-phen-ylpyrimidin-1(6H)-yl)aceamide], for which the pIC50 was greater than 7.00.

With `O=C(Cn1c(-c2ccccc2)ncc(NC(=O)NCC2CCCCC2)c1=O)NCc1cc2cnccc2[nH]1` [Compound 76, N-((1H-pyrrolo[3,2-c]pyridine-2-yl)methyl)-2-(5-(3-(cyclohexylmethyl)ureido)-6-oxo-2-phenylpyrimidin-1(6H)-yl)acetamide], the pIC50 is 6.00 to 7.00.

In the case of `O=C(Cn1cncc(NCc2nnc(-c3ccccc3)s2)c1=O)NCc1cc2cnccc2[nH]1` [Compound 485, N-((1H-pyrrolo[3,2-c]pyridin-2-yl)methyl)-2-(6-oxo-5-(((5-phenyl-1,3,4-thiadiazol-2-yl)-methyl)amino)pyrimidin-1(6H)-yl)acetamide], the negative logarithm of the IC50 (pIC50) is greater than 7.00.

As to `Cc1cnc(N[C@H](C)c2ccc3oc4ccccc4c3c2)c(=O)n1CC(=O)NCc1cc2cnccc2[nH]1` [Compound 349, (R)-N-((1H-pyrrolo[3,2-c]pyridin-2-yl)methyl)-2-(3-((1-(dibenzo[b,d]furan-2-yl)ethyl)-amino)-6-methyl-2-oxopyr-azin-1(2H)-yl)acetamide], the pIC50 was greater than 7.00.

On to `C[C@@H](Nc1cnc(-c2ccccc2F)n(CC(=O)NCc2cc3cnccc3[nH]2)c1=O)c1ccc(-c2ccccc2F)cc1` [Compound 308, (R)—N-((1H-pyrrolo[3,2-c]pyridine-2-yl)methyl)-2-(5-((1-(2′-fluoro-[1,1′-biphenyl]-4-yl)ethyl)amino)-2-(2-fluorophenyl)-6-oxopyrimidin-1(6H)-yl)acetamide], for which the pIC50 is greater than 7.00.

On to `C[C@H](Nc1cnc(-c2cccs2)n(CC(=O)NCc2cc3cnccc3[nH]2)c1=O)c1ccc2oc3ccccc3c2c1` [Compound 286, (S)-N-((1H-pyrrolo[3,2-c]pyr-idin-2-yl)methyl)-2-(5-((1-(dibenzo[b,d]furan-2-yl)ethyl)-amino)-6-oxo-2-(thiophen-2-yl)pyrimidin-1(6H)-yl)acet-amide], for which the pIC50 was greater than 7.00.

Turning to `O=C(Cn1c(-c2ccccc2)ncc(Nc2ccc(-c3ccccc3)cc2)c1=O)NCc1cc2cnccc2[nH]1` [Compound 224, N-((1H-pyrrolo[3,2-c]pyridin-2-yl)methyl)-2-(5-([1,1′-biphenyl]-4-ylamino)-6-oxo-2-phenylpyrimidin-1(6H)-yl)-acetamide], the pIC50 is 6.00 to 7.00.

As to `CC(C)[C@@H](Nc1cnc(-c2ccccc2F)n(CC(=O)NCc2cc3cnccc3[nH]2)c1=O)c1ccc2oc3ccccc3c2c1` [Compound 332, (R)—N-((1H-pyrrolo[3,2-c]pyridine-2-yl)methyl)-2-(5-((1-(dibenzo[b,d]furan-2-yl)-2-methylpropyl)amino)-2-(2-fluorophenyl)-6-oxopyrimidin-1(6H)-yl)acetamide], the pIC50 was less than 6.00.
